Reference: patent US9650334B2 (AbbVie Deutschland GmbH & Co. KG, priority 2013, dated 2017)

Molecular target: T1, human GlyT1c transporter (Homo sapiens, UniProt P48067)
T1 sequence (P48067 1-706): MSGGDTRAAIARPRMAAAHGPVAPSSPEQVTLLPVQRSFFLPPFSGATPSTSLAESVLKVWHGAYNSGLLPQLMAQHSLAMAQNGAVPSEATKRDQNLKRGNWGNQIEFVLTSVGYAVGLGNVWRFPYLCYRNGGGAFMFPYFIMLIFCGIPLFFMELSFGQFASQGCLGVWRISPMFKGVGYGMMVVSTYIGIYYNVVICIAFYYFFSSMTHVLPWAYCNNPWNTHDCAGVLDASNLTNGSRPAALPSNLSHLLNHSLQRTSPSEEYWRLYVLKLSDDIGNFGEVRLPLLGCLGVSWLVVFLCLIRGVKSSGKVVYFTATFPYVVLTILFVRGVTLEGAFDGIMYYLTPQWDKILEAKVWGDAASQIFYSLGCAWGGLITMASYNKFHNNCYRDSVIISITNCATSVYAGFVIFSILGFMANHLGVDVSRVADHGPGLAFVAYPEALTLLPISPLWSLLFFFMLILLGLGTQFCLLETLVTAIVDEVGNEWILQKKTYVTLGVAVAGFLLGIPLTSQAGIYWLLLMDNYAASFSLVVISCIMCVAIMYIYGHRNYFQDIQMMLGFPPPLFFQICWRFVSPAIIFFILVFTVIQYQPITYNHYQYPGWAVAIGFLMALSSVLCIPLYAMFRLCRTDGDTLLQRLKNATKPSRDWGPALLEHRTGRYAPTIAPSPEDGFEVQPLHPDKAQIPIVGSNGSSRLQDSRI
Assay: Radioligand binding assays using recombinant CHO cell membranes expressing human GlyT1
Settings: radioligand binding to human GlyT1c transporter-expressing CHO cell membranes

Row | Compound | Ki (Ki) [nM] | Ki [nM]
1 | CCCCCN(C)[C@H]1CN(S(=O)(=O)c2cn(C)cn2)C[C@@H]1C1OCCCO1 [Example 907, (3R,4S)-4-(1,3-dioxan-2-yl)-N-methyl-1-[(1-methyl-1H-imidazol-4-yl)sulfonyl]-N-pentylpyrrolidin-3-amine] | ≤ 1000 | 
2 | CCCCCN(CCCCC)[C@H]1CN(S(=O)(=O)c2cn(C)cn2)C[C@@H]1C1OCCCO1 [Example 908, (3R,4S)-4-(1,3-dioxan-2-yl)-1-[(1-methyl-1H-imidazol-4-yl)sulfonyl]-N,N-dipentylpyrrolidin-3-amine] | ≤ 10000 | 
3 | CCCCCCN[C@H]1CN(S(=O)(=O)c2cn(C)cn2)C[C@@H]1C1OCCCO1 [Example 910, (3R,4S)-4-(1,3-dioxan-2-yl)-N-hexyl-1-[(1-methyl-1H-imidazol-4-yl)sulfonyl]pyrrolidin-3-amine] | ≤ 100 | 
4 | Cn1cnc(S(=O)(=O)N2C[C@H](Nc3cc(C(F)(F)F)c(Cl)cn3)[C@@H](C3OCCCO3)C2)c1 [Example 911, 5-chloro-N-{(3R,4S)-4-(1,3-dioxan-2-yl)-1-[(1-methyl-1H-imidazol-4-yl)sulfonyl]pyrrolidin-3-yl}-4-(trifluoromethyl)pyridin-2-amine] | ≤ 10 | 
5 | Cn1cnc(S(=O)(=O)N2C[C@H](Nc3ccc(F)c(C(F)(F)F)c3)[C@@H](C3OCCCO3)C2)c1 [Example 912, (3R,4S)-4-(1,3-dioxan-2-yl)-N-[4-fluoro-3-(trifluoromethyl)phenyl]-1-[(1-methyl-1H-imidazol-4-yl)sulfonyl]pyrrolidin-3-amine] | ≤ 10 | 
6 | Cn1cnc(S(=O)(=O)N2CC(Nc3cccc(OC(F)(F)F)c3)C(N3CCCCC3)C2)c1 (stereo not shown) [Example 913, 1-[(1-methyl-1H-imidazol-4-yl)sulfonyl]-4-(piperidin-1-yl)-N-[3-(trifluoromethoxy)phenyl]pyrrolidin-3-amine] | ≤ 10 | 
7 | Cn1cnc(S(=O)(=O)N2C[C@H](Nc3cccc(Cl)c3)[C@@H](C3OCCCO3)C2)c1 [Example 914, (3R,4S)-N-(3-chlorophenyl)-4-(1,3-dioxan-2-yl)-1-[(1-methyl-1H-imidazol-4-yl)sulfonyl]pyrrolidin-3-amine] | ≤ 10 | 
8 | Cn1cnc(S(=O)(=O)N2C[C@H](Nc3cccc(C(F)(F)F)c3)[C@@H](C3OCCCO3)C2)c1 [Example 915, (3R,4S)-4-(1,3-dioxan-2-yl)-1-[(1-methyl-1H-imidazol-4-yl)sulfonyl]-N-[3-(trifluoromethyl)phenyl]pyrrolidin-3-amine] | ≤ 10 | 
9 | Cn1cnc(S(=O)(=O)N2C[C@H](Nc3ccc(F)c(Cl)c3)[C@@H](C3OCCCO3)C2)c1 [Example 916, (3R,4S)-N-(3-chloro-4-fluorophenyl)-4-(1,3-dioxan-2-yl)-1-[(1-methyl-1H-imidazol-4-yl)sulfonyl]pyrrolidin-3-amine] | ≤ 100 | 
10 | Cc1cccc(N[C@H]2CN(S(=O)(=O)c3cn(C)cn3)C[C@@H]2C2OCCCO2)c1 [Example 917, (3R,4S)-4-(1,3-dioxan-2-yl)-1-[(1-methyl-1H-imidazol-4-yl)sulfonyl]-N-(3-methylphenyl)pyrrolidin-3-amine] | ≤ 100 | 
11 | Cn1cnc(S(=O)(=O)N2CC(Cc3cccc(C(F)(F)F)c3)C(C3OCCCO3)C2)c1 (stereo not shown) [Example 918, 4-({3-(1,3-dioxan-2-yl)-4-[3-(trifluoromethyl)benzyl]pyrrolidin-1-yl}sulfonyl)-1-methyl-1H-imidazole] | ≤ 1000 | 
12 | Cn1cc(S(=O)(=O)N2CC(Cc3cccc(C(F)(F)F)c3)C(C3OCCCO3)C2)nn1 (stereo not shown) [Example 919, 4-({3-(1,3-dioxan-2-yl)-4-[3-(trifluoromethyl)benzyl]pyrrolidin-1-yl}sulfonyl)-1-methyl-1H-1,2,3-triazole] | ≤ 10000 | 
13 | Cn1cnc(S(=O)(=O)N2C[C@H](Nc3cccc(OC(F)(F)F)c3)[C@@H](C3OCC4(CC4)CO3)C2)c1 [Example 920, (3R,4S)-4-(5,7-dioxaspiro[2.5]oct-6-yl)-1-[(1-methyl-1H-imidazol-4-yl)sulfonyl]-N-[3-(trifluoromethoxy)phenyl]pyrrolidin-3-amine] | ≤ 10 | 
14 | C[C@@H]1C[C@@H](C)OC([C@H]2CN(S(=O)(=O)c3cn(C)cn3)C[C@@H]2Nc2cccc(OC(F)(F)F)c2)O1 (stereo partly drawn) [Example 921, (3R,4S)-4-[(4R,6R)-4,6-dimethyl-1,3-dioxan-2-yl]-1-[(1-methyl-1H-imidazol-4-yl)sulfonyl]-N-[3-(trifluoromethoxy)phenyl]pyrrolidin-3-amine] | ≤ 100 | 
15 | C[C@H]1C[C@H](C)OC([C@H]2CN(S(=O)(=O)c3cn(C)cn3)C[C@@H]2Nc2cccc(OC(F)(F)F)c2)O1 (stereo partly drawn) [Example 922, (3R,4S)-4-[(4S,6S)-4,6-dimethyl-1,3-dioxan-2-yl]-1-[(1-methyl-1H-imidazol-4-yl)sulfonyl]-N-[3-(trifluoromethoxy)phenyl]pyrrolidin-3-amine] | ≤ 10 | 
16 | Cc1cc(N[C@H]2CN(S(=O)(=O)c3cn(C)cn3)C[C@@H]2C2OCCCO2)ccc1F [Example 923, (3R,4S)-4-(1,3-dioxan-2-yl)-N-(4-fluoro-3-methylphenyl)-1-[(1-methyl-1H-imidazol-4-yl)sulfonyl]pyrrolidin-3-amine] | ≤ 100 | 
17 | Cn1cnc(S(=O)(=O)N2C[C@H](Nc3ccc(F)c(OC(F)(F)F)c3)[C@@H](C3OCCCO3)C2)c1 [Example 924, (3R,4S)-4-(1,3-dioxan-2-yl)-N-[4-fluoro-3-(trifluoromethoxy)phenyl]-1-[(1-methyl-1H-imidazol-4-yl)sulfonyl]pyrrolidin-3-amine] | ≤ 10 | 
18 | Cn1cnc(S(=O)(=O)N2C[C@H](Nc3cccc(OC(F)F)c3)[C@@H](C3OCCCO3)C2)c1 [Example 925, (3R,4S)-N-[3-(difluoromethoxy)phenyl]-4-(1,3-dioxan-2-yl)-1-[(1-methyl-1H-imidazol-4-yl)sulfonyl]pyrrolidin-3-amine] | ≤ 10 | 
19 | CC(C)c1cccc(N[C@H]2CN(S(=O)(=O)c3cn(C)cn3)C[C@@H]2C2OCCCO2)c1 [Example 926, (3R,4S)-4-(1,3-dioxan-2-yl)-1-[(1-methyl-1H-imidazol-4-yl)sulfonyl]-N-[3-(propan-2-yl)phenyl]pyrrolidin-3-amine] | ≤ 10 | 
20 | Cn1cnc(S(=O)(=O)N2CC(Nc3ccc(F)c(C(F)(F)F)c3)C(c3ccc(F)cn3)C2)c1 (stereo not shown) [Example 927, 4-(5-fluoropyridin-2-yl)-N-[4-fluoro-3-(trifluoromethyl)phenyl]-1-[(1-methyl-1H-imidazol-4-yl)sulfonyl]pyrrolidin-3-amine] | ≤ 10 | 
21 | Cn1cnc(S(=O)(=O)N2C[C@H](Nc3cccc(OCC(F)F)c3)[C@@H](C3OCCCO3)C2)c1 [Example 928, (3R,4S)-N-[3-(2,2-difluoroethoxy)phenyl]-4-(1,3-dioxan-2-yl)-1-[(1-methyl-1H-imidazol-4-yl)sulfonyl]pyrrolidin-3-amine] | ≤ 10 | 
22 | (3R,4S)-N-[2-chloro-4-(trifluoromethyl)benzyl]-1-[(1-methyl-1H-imidazol-4-yl)sulfonyl]-4-phenylpyrrolidin-3-amine [Example 394] |  | ≤ 10
23 | N-{(3R,4S)-4-(4-fluorophenyl)-1-[(1-methyl-1H-imidazol-4-yl)sulfonyl]pyrrolidin-3-yl}-6-(2-methylpropoxy)pyrimidin-4-amine [Example 718] |  | ≤ 100
24 | Trans-N-[4-chloro-3-(trifluoromethoxy)phenyl]-1-[(1-methyl-1H-imidazol-4-yl)sulfonyl]-4-[(3S)-tetrahydro-2H-pyran-3-yl]pyrrolidin-3-amine [Example 793] |  | ≤ 10000
25 | Trans-N-[4-chloro-3-(trifluoromethyl)phenyl]-1-[(1-methyl-1H-imidazol-4-yl)sulfonyl]-4-[(3S)-tetrahydro-2H-pyran-3-yl]pyrrolidin-3-amine [Example 792] |  | ≤ 10000
